Data published in US20200207744A1, “DIMER COMPOUNDS, AND USE IN BINDING TOXIC REPEATS OF RNA” (EXPANSION THERAPEUTICS, INC., priority 2018, published 2020).
pIC50: −log10 of the molar value.

These compounds were tested on r(CUG)12-MBNL1 complex (assay: Small molecule inhibition of the r(CUG)12-MBNL1 complex measured by TR-FRET). Conditions: biotinylated r(CUG)12 80 nM, MBNL1-His6 60 nM.
Type: binding
Method: Example 28: Small Molecule Inhibition of the r(CUG)12-MBNL1 Complex Measured by Time Resolved Fluorescence Resonance Energy Transfer (TR-FRET)
The in vitro activity of small molecules were assessed by measuring the inhibition of the r(CUG)12-MBNL1 complex using a TR-FRET assay previously reported by Chen et al Analytical and Bioanalytical Chemistry 2012, 402, 1889. Biotinylated r(CUG)12 was folded at 60° C. in 1× Folding Buffer (20 mM HEPES, pH 7.5, 100 mM KCl, and 10 mM NaCl) and slowly cooled to room temperature. The buffer was then adjusted to 1× TR-FRET Buffer (1× Folding Buffer supplemented with 2 mM MgCl2, 2 mM CaCl2, 5 mM DTT, 0.1% BSA, 0.05% Tween-20) and MBNL1-His6 was added. The final concentrations of RNA and MBNL1-His6 were 80 nM and 60 nM, respectively. Then dilutions of the small molecule were made in 1× TR-FRET buffer. The samples were equilibrated at room temperature for 15 min, after which 1 μL of antibody solution (1:1 mixture of 8.8 ng/μL Anti-His6-Tb and 800 nM streptavidin XL-665) was added. Samples were incubated at room temperature for 1 h, and then TR-FRET was measured using a Molecular Devices SpectraMax M5 plate reader using an excitation wavelength of 345 nm and a 420 nm cutoff. Controls for maximum TR-FRET (100% complex formation) contained 8 μL of 1× TR-FRET Buffer with RNA and protein and 1 μL water. Controls for minimum TR-FRET (no complex formation) contained 8 μL of 1× Assay Buffer, 1 μL water, and no RNA or protein.
To calculate the percent inhibition of complex formation, the ratio of fluorescence intensity at 545 nm and 665 nm in the presence of compound was compared to the ratio in the absence of small molecule (100% r(CUG)12-MBNL1 complex formation) and in the absence of RNA and protein (no complex formation). The resulting curves were fit to the following equation to determine IC50 values: […]
where y is ratio of fluorescence intensities at 545 nm and 665 nm (F545/F665), x is the concentration of small molecule, B is F545/F665 value at max FRET effect (solution has RNA and protein but no small molecule added); A is F545/F665 value at min FRET effect (solution has antibodies but no RNA, protein, or small molecule); and the IC50 is the concentration of small molecule where half of the protein is displaced by small molecule.

| Compound | pIC50 |
| --- | --- |
| 3,3′-((2,2′-(((oxybis(ethane-2,1-diyl))bis(oxy))bis(2,1-phenylene))bis(1H-benzo[d]imidazole-6,2-diyl))bis(oxy))bis(N,N-dimethylpropan-1-amine) [Ex 13] | 3.73 |
| CN(C)CCCOc1ccc2nc(-c3ccccc3OCCOCCOCCOc3ccccc3-c3nc4ccc(OCCCN(C)C)cc4[nH]3)[nH]c2c1 [Ex 14a, 3,3′-((2,2′-((((ethane-1,2-diylbis(oxy))bis(ethane-2,1-diyl))bis(oxy))bis(2,1-phenylene))bis(1H-benzo[d]imidazole-6,2-diyl))bis(oxy))bis(N,N-dimethylpropan-1-amine)] | 3.78 |
| 3,3′-((2,2′-((ethane-1,2-diylbis(oxy))bis(2,1-phenylene))bis(1H-benzo[d]imidazole-6,2-diyl))bis(oxy))bis(N,N-dimethylpropan-1-amine) [Ex 12] | < 3.70 |
| 3,3′-((2,2′-(2-(3-((3-(2,5-bis(6-(3-(dimethylamino)propoxy)-1H-benzo[d]imidazol-2-yl)phenoxy)propyl)(methyl)amino)propoxy)-1,4-phenylene)bis(1H-benzo[d]imidazole-6,2-diyl))bis(oxy))bis(N,N-dimethylpropan-1-amine) [Ex 18] | 6.14 |
| CN(C)CCCOc1ccc2nc(-c3ccc(-c4nc5ccc(OCCCN(C)C)cc5[nH]4)c(OCCCCCCCCCCCCOc4cc(-c5nc6ccc(OCCCN(C)C)cc6[nH]5)ccc4-c4nc5ccc(OCCCN(C)C)cc5[nH]4)c3)[nH]c2c1 [Ex 20, 3,3′,3″,3′″-((((dodecane-1,12-diylbis(oxy))bis(benzene-2,1,4-triyl))tetrakis(1H-benzo[d]imidazole-2,5-diyl))tetrakis(oxy))tetrakis(N,N-dimethylpropan-1-amine)] | 5.55 |
| CN(C)CCCOc1ccc2nc(-c3ccccc3OCCOCCOCCOc3ccccc3-c3nc4ccc(O)cc4[nH]3)[nH]c2c1 [Ex 14b, 2-(2-(2-(2-(2-(2-(6-(3-(dimethylamino)propoxy)-1H-benzo[d]imidazole-2-yl)phenoxy)ethoxy)ethoxy)ethoxy)phenyl)-1H-benzo[d]imidazol-6-ol] | < 3.70 |
